# Measurements: PubChem BioAssay AID330 (DTP/NCI, 2004)
# “And” between values parts separate entries of the source, which are not always exact repeats. Equal entries are not always repeated. Inconclusive results and toxic doses are left out.
# Test system: P388 leukemia ip, CD2F1 mice, survival T/C
# Test: NCI In Vivo Anticancer Drug Screen. Data for tumor model P388 Leukemia (intraperitoneal) in CD2F1 (CDF1) mice
# Settings: endpoint: median survival time, higher = longer survival
# Description: The antitumor activity of compounds was measured in mice bearing transplantable tumors. Survival or tumor size were measured and the results are expressed as the measurement made in the treated group (T) divided by the measurement made in the vehicle treated control group (C). The tumor model used in this assay is P388 Leukemia (intraperitoneal) in CD2F1 (CDF1) mice
# [1] = dose: 60.0 mg/kg/injection, schedule: Q01DX005 (ip), vehicle: saline with Tween-80
# [2] = dose: 120.0 mg/kg/injection, schedule: Q01DX005 (ip), vehicle: saline with Tween-80
# [3] = dose: 50.0 mg/kg/injection, schedule: Q01DX005 (ip), vehicle: Klucel (hydroxypropylcellulose) (HPC)
# [4] = dose: 100.0 mg/kg/injection, schedule: Q01DX005 (ip), vehicle: Klucel (hydroxypropylcellulose) (HPC)
# [5] = dose: 200.0 mg/kg/injection, schedule: Q01DX005 (ip), vehicle: Klucel (hydroxypropylcellulose) (HPC)
compound,measurement,setting,value
CCO/C=C1/N=C(c2ccc(Cl)cc2)OC1=O,T/C,[1],121 % of control
NC(CSC(c1ccccc1)(c1ccccc1)c1ccc(Cl)cc1)C(=O)O (stereo unspecified),T/C,"dose: 33.0 mg/kg/injection, schedule: Q04DX003 (ip), vehicle: saline with Tween-80",177 % of control
same,T/C,"dose: 50.0 mg/kg/injection, schedule: Q04DX003 (ip), vehicle: saline with Tween-80",181 % of control and 272 % of control
same,T/C,"dose: 75.0 mg/kg/injection, schedule: Q04DX003 (ip), vehicle: saline with Tween-80",200 % of control
same,T/C,"dose: 200.0 mg/kg/injection, schedule: Q04DX003 (ip), vehicle: saline with Tween-80",100 % of control
Cc1c2ccncc2c(CO)c2c3ccccc3n(C)c12,T/C,"dose: 5.0 mg/kg/injection, schedule: Q01DX005 (ip), vehicle: saline",109 % of control
same,T/C,"dose: 10.0 mg/kg/injection, schedule: Q01DX005 (ip), vehicle: saline",97 % of control
same,T/C,"dose: 20.0 mg/kg/injection, schedule: Q01DX005 (ip), vehicle: saline",97 % of control
CCOc1ccccc1NC(=O)/C(Cl)=C(\Cl)C(=O)O,T/C,[1],109 % of control
same,T/C,[2],107 % of control
COC(=O)C1=C[C@H]2O[C@H]2[C@H](O)C1,T/C,"dose: 1.5 mg/kg/injection, schedule: Q01DX005 (ip), vehicle: Klucel (hydroxypropylcellulose) (HPC)",100 % of control
same,T/C,"dose: 3.0 mg/kg/injection, schedule: Q01DX005 (ip), vehicle: Klucel (hydroxypropylcellulose) (HPC)",106 % of control
same,T/C,"dose: 6.0 mg/kg/injection, schedule: Q01DX005 (ip), vehicle: Klucel (hydroxypropylcellulose) (HPC)",101 % of control
same,T/C,"dose: 12.0 mg/kg/injection, schedule: Q01DX005 (ip), vehicle: Klucel (hydroxypropylcellulose) (HPC)",100 % of control
COC(=O)C1C(=O)COC1C (stereo unspecified),T/C,"dose: 50.0 mg/kg/injection, schedule: Q01DX005 (ip), vehicle: saline",102 % of control
same,T/C,"dose: 200.0 mg/kg/injection, schedule: Q01DX005 (ip), vehicle: saline",102 % of control
CCCCCC(=O)SCC(=O)OCC(=O)[C@]1(O)Cc2c(O)c3c(c(O)c2[C@@H](OC2CC(N)C(O)C(C)O2)C1)C(=O)c1c(OC)cccc1C3=O (stereo partly specified),T/C,"dose: 0.78 mg/kg/injection, schedule: Q01DX009 (ip), vehicle: water",169 % of control
same,T/C,"dose: 1.56 mg/kg/injection, schedule: Q01DX009 (ip), vehicle: water",174 % of control and 179 % of control
same,T/C,"dose: 3.13 mg/kg/injection, schedule: Q01DX009 (ip), vehicle: water",194 % of control and 209 % of control
same,T/C,"dose: 6.25 mg/kg/injection, schedule: Q01DX009 (ip), vehicle: water",104 % of control
C[CH2][Sn]([Br])([c]1ccccc1)[c]1ccccc1CN(C)C (stereo unspecified),T/C,"dose: 50.0 mg/kg/injection, schedule: Q01DX009 (ip), vehicle: saline",91 % of control
same,T/C,"dose: 100.0 mg/kg/injection, schedule: Q01DX009 (ip), vehicle: saline",98 % of control
COc1ccc(C(=O)/C=C/c2c[nH]c3ccccc23)c(O)c1,T/C,"dose: 15.0 mg/kg/injection, schedule: Q01DX005 (ip), vehicle: saline with Tween-80",96 % of control
same,T/C,"dose: 30.0 mg/kg/injection, schedule: Q01DX005 (ip), vehicle: saline with Tween-80",96 % of control
same,T/C,[1],96 % of control
same,T/C,[2],92 % of control
same,T/C,"dose: 240.0 mg/kg/injection, schedule: Q01DX005 (ip), vehicle: saline with Tween-80",96 % of control
C=C1CCC2C(OC(=O)C2(COC(C)=O)OC(C)=O)C2C(=C)C(OC(C)=O)CC12 (stereo unspecified),T/C,"dose: 11.25 mg/kg/injection, schedule: Q01DX005 (ip), vehicle: Klucel (hydroxypropylcellulose) (HPC)",100 % of control
same,T/C,"dose: 22.5 mg/kg/injection, schedule: Q01DX005 (ip), vehicle: Klucel (hydroxypropylcellulose) (HPC)",97 % of control
same,T/C,"dose: 45.0 mg/kg/injection, schedule: Q01DX005 (ip), vehicle: Klucel (hydroxypropylcellulose) (HPC)",103 % of control
same,T/C,"dose: 90.0 mg/kg/injection, schedule: Q01DX005 (ip), vehicle: Klucel (hydroxypropylcellulose) (HPC)",104 % of control
same,T/C,"dose: 180.0 mg/kg/injection, schedule: Q01DX005 (ip), vehicle: Klucel (hydroxypropylcellulose) (HPC)",99 % of control
CCC1C(=O)OCc2c1cc1n(c2=O)Cc2ccccc2-1 (stereo unspecified),T/C,"dose: 100.0 mg/kg/injection, schedule: Q01DX001 (ip), vehicle: saline with Tween-80",97 % of control
same,T/C,"dose: 200.0 mg/kg/injection, schedule: Q01DX001 (ip), vehicle: saline with Tween-80",92 % of control
same,T/C,"dose: 400.0 mg/kg/injection, schedule: Q01DX001 (ip), vehicle: saline with Tween-80",90 % of control
O=C1NC(O)c2cc(Cl)ccc2O1 (stereo unspecified),T/C,[3],96 % of control
same,T/C,[4],97 % of control
same,T/C,[5],96 % of control
S=C1CC(N2CCCC2)=Nc2ccccc2N1,T/C,[3],100 % of control
same,T/C,[4],90 % of control
same,T/C,[5],95 % of control
